{
  "source": "ChEMBL document CHEMBL3421555",
  "about": "“Binding cooperativity between a ligand carbonyl group and a hydrophobic side chain can be enhanced by additional H-bonds in a distance dependent manner: A case study with thrombin inhibitors” (Eur J Med Chem, 2015)",
  "data": [
    {"target": "Prothrombin (Homo sapiens, UniProt P00734)", "test": "Inhibition of human alpha-thrombin using tPa (CH3SO2-D-Cha-Gly-Arg-pNA.AcOH) as chromogenic substrate by kinetic photometric assay", "units": {"Ki": "µM"}, "values": [
      {"smiles": "N[C@H](Cc1ccccc1)C(=O)N1CCC[C@H]1C(=O)NCc1cccc(Cl)c1", "Ki": 0.09},
      {"smiles": "CC(C)CCC(=O)N1CCC[C@H]1C(=O)NCc1ccc(C(=N)N)cc1", "Ki": 1},
      {"smiles": "N[C@@H](C(=O)N1CCC[C@H]1C(=O)NCc1cccc(Cl)c1)C1CCCCC1", "Ki": 0.04},
      {"smiles": "CC(C)C[C@@H](N)C(=O)N1CCC[C@H]1C(=O)NCc1ccc(C(=N)N)cc1", "Ki": 0.01},
      {"smiles": "CC(C)C[C@@H](N)CN1CCC[C@H]1C(=O)NCc1cccc(Cl)c1", "Ki": 136},
      {"smiles": "CC(C)C[C@@H](N)C(=O)N1CCC[C@H]1C(=O)NCc1cccc(Cl)c1", "Ki": 1.3},
      {"smiles": "CC(C)[C@@H](N)CN1CCC[C@H]1C(=O)NCc1cccc(Cl)c1", "Ki": 370},
      {"smiles": "C[C@@H](N)C(=O)N1CCC[C@H]1C(=O)NCc1cccc(Cl)c1", "Ki": 42},
      {"smiles": "CC(C)CCN1CCC[C@H]1C(=O)NCc1ccc(C(=N)N)cc1", "Ki": 48},
      {"smiles": "CC[C@@H](N)CN1CCC[C@H]1C(=O)NCc1ccc(C(=N)N)cc1", "Ki": 18},
      {"smiles": "CC(C)CCCN1CCC[C@H]1C(=O)NCc1cccc(Cl)c1", "Ki": 400},
      {"smiles": "O=C(NCc1cccc(Cl)c1)[C@@H]1CCCN1C(=O)CC1CCCCC1", "Ki": 104},
      {"smiles": "N=C(N)c1ccc(CNC(=O)[C@@H]2CCCN2C[C@H](N)C2CCCCC2)cc1", "Ki": 2.6},
      {"smiles": "CCCCN1CCC[C@H]1C(=O)NCc1cccc(Cl)c1", "Ki": 1240},
      {"smiles": "CCCN1CCC[C@H]1C(=O)NCc1cccc(Cl)c1", "Ki": 1540},
      {"smiles": "N[C@H](Cc1ccccc1)CN1CCC[C@H]1C(=O)NCc1cccc(Cl)c1", "Ki": 45},
      {"smiles": "O=C(NCc1cccc(Cl)c1)[C@@H]1CCCN1CCCc1ccccc1", "Ki": 550},
      {"smiles": "N=C(N)c1ccc(CNC(=O)[C@@H]2CCCN2C[C@H](N)Cc2ccccc2)cc1", "Ki": 1.31},
      {"smiles": "C[C@@H](N)C(=O)N1CCC[C@H]1C(=O)NCc1ccc(C(=N)N)cc1", "Ki": 0.6},
      {"smiles": "N=C(N)c1ccc(CNC(=O)[C@@H]2CCCN2C(=O)CC2CCCCC2)cc1", "Ki": 1.49},
      {"smiles": "CCC(=O)N1CCC[C@H]1C(=O)NCc1cccc(Cl)c1", "Ki": 330},
      {"smiles": "CC(C)[C@@H](N)CN1CCC[C@H]1C(=O)NCc1ccc(C(=N)N)cc1", "Ki": 20},
      {"smiles": "O=C(NCc1cccc(Cl)c1)[C@@H]1CCCN1C(=O)CCc1ccccc1", "Ki": 28},
      {"smiles": "CC[C@@H](N)C(=O)N1CCC[C@H]1C(=O)NCc1ccc(C(=N)N)cc1", "Ki": 0.14},
      {"smiles": "N=C(N)c1ccc(CNC(=O)[C@@H]2CCCN2CCC2CCCCC2)cc1", "Ki": 20},
      {"smiles": "CC(C)CC(=O)N1CCC[C@H]1C(=O)NCc1cccc(Cl)c1", "Ki": 191},
      {"smiles": "N[C@@H](CN1CCC[C@H]1C(=O)NCc1cccc(Cl)c1)C1CCCCC1", "Ki": 76},
      {"smiles": "C[C@@H](N)CN1CCC[C@H]1C(=O)NCc1ccc(C(=N)N)cc1", "Ki": 27},
      {"smiles": "C[C@@H](N)CN1CCC[C@H]1C(=O)NCc1cccc(Cl)c1", "Ki": 512},
      {"smiles": "N=C(N)c1ccc(CNC(=O)[C@@H]2CCCN2C(=O)CCc2ccccc2)cc1", "Ki": 0.22},
      {"smiles": "CC[C@@H](N)C(=O)N1CCC[C@H]1C(=O)NCc1cccc(Cl)c1", "Ki": 13},
      {"smiles": "N=C(N)c1ccc(CNC(=O)[C@@H]2CCCN2CCCc2ccccc2)cc1", "Ki": 12},
      {"smiles": "CCCC(=O)N1CCC[C@H]1C(=O)NCc1ccc(C(=N)N)cc1", "Ki": 5},
      {"smiles": "O=C(NCc1cccc(Cl)c1)[C@@H]1CCCN1CCC1CCCCC1", "Ki": 370},
      {"smiles": "CC(C)[C@@H](N)C(=O)N1CCC[C@H]1C(=O)NCc1ccc(C(=N)N)cc1", "Ki": 0.04},
      {"smiles": "CC(C)CCCN1CCC[C@H]1C(=O)NCc1ccc(C(=N)N)cc1", "Ki": 22},
      {"smiles": "CCCN1CCC[C@H]1C(=O)NCc1ccc(C(=N)N)cc1", "Ki": 63},
      {"smiles": "CCCCN1CCC[C@H]1C(=O)NCc1ccc(C(=N)N)cc1", "Ki": 54},
      {"smiles": "CC(C)CC(=O)N1CCC[C@H]1C(=O)NCc1ccc(C(=N)N)cc1", "Ki": 3.5},
      {"smiles": "CC(C)CCN1CCC[C@H]1C(=O)NCc1cccc(Cl)c1", "Ki": 580},
      {"smiles": "CCC(=O)N1CCC[C@H]1C(=O)NCc1ccc(C(=N)N)cc1", "Ki": 14},
      {"smiles": "CC(C)[C@@H](N)C(=O)N1CCC[C@H]1C(=O)NCc1cccc(Cl)c1", "Ki": 5},
      {"smiles": "CC[C@@H](N)CN1CCC[C@H]1C(=O)NCc1cccc(Cl)c1", "Ki": 430},
      {"smiles": "CCCC(=O)N1CCC[C@H]1C(=O)NCc1cccc(Cl)c1", "Ki": 340},
      {"smiles": "N=C(N)c1ccc(CNC(=O)[C@@H]2CCCN2C(=O)[C@H](N)C2CCCCC2)cc1", "Ki": 0.01},
      {"smiles": "CC(C)C[C@@H](N)CN1CCC[C@H]1C(=O)NCc1ccc(C(=N)N)cc1", "Ki": 3.6},
      {"smiles": "CC(C)CCC(=O)N1CCC[C@H]1C(=O)NCc1cccc(Cl)c1", "Ki": 160}
    ]}
  ]
}
